From patent US20220220100A1 (SOLUTIA CANADA INC., priority 2019, published 2022)

Experiments:
Type in all cases: physicochemical
[1] = Solubility in Rhodiasolv IRIS solvent; conditions: for Solubility in Rhodiasolv IRIS: Rhodiasolv IRIS (dimethyl-2-methyl glutarate), wt %; for Solubility (in words): relative to the methoxy parent chromophore
Source text: A compound with greater solubility allows for a formulation or material with a greater concentration of coloured molecule to be incorporated into a composition. This may allow for increasing the contrast ratio for a compound with a lesser absorbance at PSS. Examples of solubilizing groups for the compound include alkoxy, ether, ester or siloxy groups. In various embodiments, compounds may be soluble in the solvent component at room temperature at about 6 wt %, 7 wt %, 8 wt %, 9 wt %, 10 wt % or greater for testing to determine whether a compound has application as an exterior glazing or optical filter. If the solubility of a compound in the solvent component is too low, then insufficient darkening may be achieved in the ring-closed configuration, depending on conditions of use for the compound.
Chromophore solutions in Rhodiasolv IRIS were prepared at 1 to 10 wt % loading. Solutions were prepared in a glovebox by charging the chromophore and Rhodiasolv IRIS to a trace-clean vial, and the solution was stirred on a hotplate at 90° C. for 2-24 hours. After cooling, the chromophore solution was injected into glass weathering cells and the fill and vent ports were sealed with a thin disc of Kalrez (FFKM Perfluorinated Elastomer) and secured with a clamp and set-screw. The weathering cells were filled and sealed inside the glove box.

[2] = Oxidation potential of ring-closed and ring-open isomers; conditions: no unit printed in table (V relative to Ag/AgCl)
Source text: In various embodiments, at a PSS, some of the chromophore will be in the ring-closed isomer, with a small, but non-zero portion of ring-open isomer. The oxidation potential of a ring-open isomer may be more anodic than the oxidation potential of a ring-closed isomer. Exposure to a potential that is too far beyond what is necessary to oxidize the ring-closed isomer may result in oxidation of the ring-open isomer, which may be irreversible and result in electrochemically-induced degradation of the chromophore.
Thus, in various embodiments, an anodic chromophore may have an oxidation potential of from about 0.4 V to 1.2 V for the ring-closed isomer and about 1.0 V to 2.5 V for the ring-open isomer relative to an Ag/AgCl reference electrode. In various embodiments, the oxidation potential for the ring-open isomer is about 250 mV more anodic than the oxidation potential for the ring-closed isomer. For example, the oxidation potential may be about 260 mV, about 280 mV, about 300 mV, about 320 mV, about 340 mV, about 360 mV, about 380 mV, about 400 mV, about 420 mV, about 440 mV, or about 460 mV more anodic than the oxidation potential for the ring-closed isomer.

[3] = Photostationary state (PSS) and lambda max under simulated sunlight (solar simulator); conditions: for PSS (Steady State): head of Table 3; for PSS (Steady State) / PSS (SS): absorbance at photostationary state, 2×10^−5 M solution; for λmax (nm): peak in the visible range, ring-closed (dark) state; for PSS (SS): simulated sunlight (solar simulator)
Source text: The term “photostationary state” (PSS) refers to an equilibrium state of a compound or material where the rate of the ring closing (forward) reaction is equal to the rate of the ring-opening reaction, when irradiated with light in a given region of the spectrum. In other words, the ratio of the ring-open isomer to the ring-closed isomer is at an equilibrium. PSS may be expressed with reference to a light source, or with reference to a type of light, for example, QUV, Xenon-arc lamp, Q-SUN, natural or filtered sunlight, UV, VIS, IR, NIR, full spectrum or the like, or with reference to a particular wavelength or range of wavelengths, or in the presence or absence of a filter. Some ring-open and ring-closed isomers may undergo isomerization from one to the other in response to different wavelengths of light. If a wavelength of light is used where only one of the isomers absorbs, irradiation results in complete isomerization to the other form. 254 nm, 313 nm or 365 nm light are commonly used in studies of UV-absorbing isomers, but this may not be representative of the PSS under other light conditions that include the visible spectrum such as natural or simulated sunlight (“full spectrum” light) and/or with filters that block a portion of the UV component of the light. For example, in a ring-closed (dark) state, the magnitude of the maximum absorbance in the visible range may change with the light source (FIG. 1). The wavelength at this peak in the visible range may be referred to as lambda max, or λmax. […] When full spectrum light from a solar simulator (Xenon arc lamp) is used as a light source (line B), a balance is achieved between the ring-closed (dark) state induced by the UV component, and a ring-open (faded) state induced by the visible component of the light. Inclusion of a UV blocking layer in the light path (line A) may reduce the UV component of the light, and the ring-opening reaction induced by the visible light component becomes more prominent. […] Where desired, the ratio of ring-open and ring-closed isomers at a PSS may be quantified by ^1H NMR spectroscopy, such as described in U.S. Pat. No. 7,777,055. In various embodiments, compounds with an increased absorbance at a photostationary state (PSS), or increased contrast ratio, are an improvement over other diarylethene compounds. A compound with a greater absorbance in the visible range can be used in lesser quantities in a formulation or material to achieve a desired contrast ratio, whereas a compound with a lower absorbance at a PSS may need a higher concentration to achieve a desired contrast ratio.
Photostationary State (PSS)
UV/Vis spectra were obtained using an OceanOptics™ Spectrophotometer. A 2×10^−5 M solution of compound in solvent was prepared, and photofaded using visible light until absorption in the visible region of the spectrum stabilized. The sample was then irradiated with simulated sunlight (QSUN SS-150 Solar Simulator with xenon arc lamp) until the absorption spectrum stabilized. To obtain PSS in the presence of a UV blocking film, a second sample was prepared and irradiated as described, with a UV blocking film inserted in the light path when irradiating.

Structure (SMILES) | Solubility in Rhodiasolv IRIS [1] | RC [O] (oxidation potential of ring-closed isomer) [2] | RO [O] (oxidation potential of ring-open isomer) [2] | PSS (Steady State) [3] | λmax (nm) [3] | PSS (SS) [3] | Solubility (in words) [1]
COc1ccc2c(C3=C(c4cc(-c5ccc(C(C)(C)C)s5)sc4-c4ccc(C(C)(C)C)s4)C(F)(F)C(F)(F)C3(F)F)c(-c3ccc(C(C)(C)C)cc3)oc2c1 | <3% | 1 | 1.38 | 0.255 | 575 nm | – | –
COc1cc2oc(-c3ccc(C(C)(C)C)cc3)c(C3=C(c4cc(-c5cc6c(s5)C(C)(C)CCC6(C)C)sc4-c4cc5c(s4)C(C)(C)CCC5(C)C)C(F)(F)C(F)(F)C3(F)F)c2cc1OC | <3% | 0.91 | 1.29 | – | 594 nm | 0.358 | –
COCCCOc1cc2oc(-c3ccc(C(C)(C)C)cc3)c(C3=C(c4cc(-c5cc(C(C)(C)C)cs5)sc4-c4cc(C(C)(C)C)cs4)C(F)(F)C(F)(F)C3(F)F)c2cc1OCCCOC | >10% | 0.95 | 1.39 | – | 594 nm | 0.319 | –
CC(C)(C)c1ccc(-c2oc3cc(OCCN4C(=O)CCC4=O)c(OCCN4C(=O)CCC4=O)cc3c2C2=C(c3cc(-c4cc(C(C)(C)C)cs4)sc3-c3cc(C(C)(C)C)cs3)C(F)(F)C(F)(F)C2(F)F)cc1 | >10% | 1.05 | 1.42 | – | 585 nm | 0.364 | –
COc1cc2oc(-c3ccc(C(C)(C)C)cc3)c(C3=C(c4cc(-c5ccc(C(C)(C)C)s5)sc4-c4ccc(C(C)(C)C)s4)C(F)(F)C(F)(F)C3(F)F)c2cc1OC [Chromophore S340, 2-(4-(tert-butyl)phenyl)-3-(2-(5,5″-di-tert-butyl-[2,2′:5′,2″-terthiophen]-3′-yl)-3,3,4,4,5,5-hexafluorocyclopent-1-en-1-yl)-5,6-dimethoxybenzofuran] | 7% | 0.95 | 1.35 | 0.417 | 591 nm | – | –
CC(C)(C)c1ccc(-c2oc3ccccc3c2C2=C(c3cc(-c4ccc(C(C)(C)C)s4)sc3-c3ccc(C(C)(C)C)s3)C(F)(F)C(F)(F)C2(F)F)cc1 [Chromophore S343, 2-(4-(tert-butyl)phenyl)-3-(2-(5,5″-di-tert-butyl-[2,2′:5′,2″-terthiophen]-3′-yl)-3,3,4,4,5,5-hexafluorocyclopent-1-en-1-yl)benzofuran] | <1% | 1.1 | 1.37 | 0.315 | 573 nm | – | –
COc1ccc2oc(-c3ccc(C(C)(C)C)cc3)c(C3=C(c4cc(-c5ccc(C(C)(C)C)s5)sc4-c4ccc(C(C)(C)C)s4)C(F)(F)C(F)(F)C3(F)F)c2c1 [Chromophore S344, 2-(4-(tert-butyl)phenyl)-3-(2-(5,5″-di-tert-butyl-[2,2′:5′,2″-terthiophen]-3′-yl)-3,3,4,4,5,5-hexafluorocyclopent-1-en-1-yl)-5-methoxybenzofuran] | <3% | 1.05 | 1.36 | 0.337 | 583 nm | – | –
COCCOc1cc2oc(-c3ccc(C(C)(C)C)cc3)c(C3=C(c4cc(-c5ccc(C(C)(C)C)s5)sc4-c4ccc(C(C)(C)C)s4)C(F)(F)C(F)(F)C3(F)F)c2cc1OCCOC [Chromophore S364, 2-(4-(tert-butyl)phenyl)-3-(2-(5,5″-di-tert-butyl-[2,2′:5′,2″-terthiophen]-3′-yl)-3,3,4,4,5,5-hexafluorocyclopent-1-en-1-yl)-5,6-bis(2-methoxyethoxy)benzofuran] | >10% | 0.93 | 1.32 | 0.427 | 593 nm | – | improved
CC(=O)Oc1cc2oc(-c3ccc(C(C)(C)C)cc3)c(C3=C(c4cc(-c5ccc(C(C)(C)C)s5)sc4-c4ccc(C(C)(C)C)s4)C(F)(F)C(F)(F)C3(F)F)c2cc1OC(C)=O [Chromophore S367, 2-(4-(tert-butyl)phenyl)-3-(2-(5,5″-di-tert-butyl-[2,2′:5′,2″-terthiophen]-3′-yl)-3,3,4,4,5,5-hexafluorocyclopent-1-en-1-yl)benzofuran-5,6-diyl diacetate] | >10% | 1.12 | 1.38 | 0.32 | 583 nm | – | improved
CCOC(=O)CCCOc1cc2oc(-c3ccc(C(C)(C)C)cc3)c(C3=C(c4cc(-c5ccc(C(C)(C)C)s5)sc4-c4ccc(C(C)(C)C)s4)C(F)(F)C(F)(F)C3(F)F)c2cc1OCCCC(=O)OCC [Chromophore S374, diethyl 4,4′-((2-(4-(tert-butyl)phenyl)-3-(2-(5,5″-di-tert-butyl-[2,2′:5′,2″-terthiophen]-3′-yl)-3,3,4,4,5,5-hexafluorocyclopent-1-en-1-yl)benzofuran-5,6-diyl)bis(oxy))dibutanoate] | >10% | 0.93 | 1.35 | 0.422 | 590 nm | – | improved
COc1cc2oc(-c3ccc(C(C)(C)C)cc3)c(C3=C(c4cc(-c5cc(C(C)(C)C)cs5)sc4-c4cc(C(C)(C)C)cs4)C(F)(F)C(F)(F)C3(F)F)c2cc1OC [Chromophore S377, 2-(4-(tert-butyl)phenyl)-3-(2-(4,4″-di-tert-butyl-[2,2′:5′,2″-terthiophen]-3′-yl)-3,3,4,4,5,5-hexafluorocyclopent-1-en-1-yl)-5,6-dimethoxybenzofuran] | >5% | 0.97 | 1.42 | – | 593 nm | 0.308 | –
